This test concerns the target T1, EPHA7 (Homo sapiens, UniProt Q15375).
T1 construct: purchased Thermo Fisher Scientific (Life Technologies) SelectScreen
As to the kind of experiment: SelectScreen LanthaScreen. The class given is binding. Conditions: read-out: % displacement. The procedure:
The in vitro kinase selectivity of NU5455 was determined using the SelectScreen Broad Assay Panel (Thermo Fisher Scientific) involving activity and binding assays (Supplemental Table 1). […] Class IA PI3Ks were measured using the p85α subunit.
Kinase [ATP] % Assay Kinase [ATP] % Assay Kinase [ATP] % Assay Kinase [ATP] % Assay
DNA-PK Km app 98.3 Z LATS2 n/a 4.7 L KIT D820E n/a 1.3 L GSK3B (GSK3 beta) Km app -2.5 Z
PIK3C3 (hVPS34) Km app 85.9 A PRKCZ (PKC zeta) Km app 4.7 Z GRK1 n/a 1.3 L BMPR2 n/a -2.5 L
PIK3C2B (PI3K-C2 beta) 10 28.9 A FGFR1 Km app 4.7 Z BRSK2 n/a 1.2 L CDC42 BPB (MRCKB) Km app -2.5 Z
SNF1LK2 Km app 26.6 Z MINK1 Km app 4.6 Z NUAK1 (ARK5) Km app 1.2 A AMPK (A2/B2/G2) n/a -2.6 L
HCK Km app 18.0 Z CSF1R (FMS) Km app 4.3 Z CDK9/cyclin K n/a 1.0 L PRKG1 Km app -2.7 Z
NEK2 Km app 17.8 Z CSNK1G3 (CK1 gamma 3) Km app 4.2 Z NUAK2 n/a 1.0 L KIT T670E n/a -2.8 L
ALK Km app 17.3 Z STK32C (YANK3) n/a 4.2 L CDK2/cyclin O n/a 0.9 L ERBB4 (HER4) Km app -2.8 Z
FGFR3 K650M n/a 16.5 L STK22D (TSSK1) Km app 4.2 Z CAMKK2 (CaMKK beta) n/a 0.9 L PLK4 n/a -2.8 L
SIK3 n/a 16.1 L TAOK3 (JIK) n/a 4.2 L FGFR3 Km app 0.9 Z GRK7 Km app -3.0 Z
LYN A Km app 15.2 Z RPS6KA4 (MSK2) Km app 4.2 Z ULK2 n/a 0.9 L MAPKAPK2 Km app -3.1 Z
BMPR1B (ALK6) n/a 14.5 L PTK2B (FAK2) Km app 4.2 Z KIT D816V n/a 0.9 L FGFR4 Km app -3.1 Z
INSRR (IRR) Km app 14.1 Z CLK2 Km app 4.1 Z CAMK1 (CaMK1) 10 0.8 A CASK n/a -3.1 L
PLK2 Km app 14.1 Z STK24 (MST3) Km app 4.1 Z PTK6 (Brk) Km app 0.7 Z GRK5 Km app -3.2 Z
PRKACA (PKA) Km app 14.0 Z CAMK1D (CaMKI delta) Km app 4.1 Z CAMK2B (CaMKII beta) Km app 0.7 Z EGFR (ErbB1) T790M Km app -3.3 Z
EIF2AK2 (PKR) n/a 13.3 L INSR Km app 4.1 Z ACVR1 (ALK2) n/a 0.7 L PAK4 Km app -3.3 Z
PRKX Km app 12.5 Z IRAK1 Km app 4.0 A ABL1 H396P n/a 0.6 L DAPK3 (ZIPK) Km app -3.4 Z
FGR Km app 12.1 Z SRC N1 Km app 3.9 Z MERTK (cMER) A708S n/a 0.6 L RET M918T n/a -3.5 L
CLK1 Km app 11.7 Z SRPK2 Km app 3.9 Z MAPKAPK5 (PRAK) Km app 0.6 Z PRKCQ (PKC theta) Km app -3.7 Z
MARK3 Km app 11.4 Z RPS6KA6 (RSK4) Km app 3.8 Z AKT1 (PKB alpha) Km app 0.5 Z CAMKK1 (CAMKKA) n/a -3.8 L
PDGFRB (PDGFR beta) Km app 11.0 Z GRK6 Km app 3.7 Z NTRK3 (TRKC) Km app 0.4 Z FLT3 D835Y Km app -3.9 Z
PRKCN (PKD3) Km app 10.7 Z PKN1 (PRK1) Km app 3.6 Z ZAP70 Km app 0.3 Z ROCK2 Km app -4.1 Z
STK16 (PKL12) n/a 10.5 L MAP3K8 (COT) 100 3.5 Z CSNK1A1 (CK1 alpha 1) Km app 0.3 Z CHUK (IKK alpha) Km app -4.2 A
FES (FPS) Km app 10.4 Z FLT4 (VEGFR3) Km app 3.5 Z MYLK (MLCK) n/a 0.2 L AXL Km app -4.2 Z
ABL1 Km app 10.4 Z GRK4 Km app 3.5 Z MKNK2 (MNK2) n/a 0.2 L PIM2 Km app -4.3 Z
MUSK Km app 10.3 Z FRK (PTK5) Km app 3.4 Z AMPK (A1/B1/G3) n/a 0.2 L PAK1 Km app -4.4 Z
MAPK1 (ERK2) Km app 10.1 Z FYN A n/a 3.3 L MAP3K2 (MEKK2) n/a 0.1 L BMPR1A (ALK3) n/a -4.4 L
BRAF 100 9.9 Z CDK1/cyclin A2 n/a 3.3 L CDK8/cyclin C n/a 0.1 L STK4 (MST1) Km app -4.4 Z
IGF1R Km app 9.7 Z KIT V559D T670I n/a 3.1 L MARK2 Km app 0.1 Z PRKCH (PKC eta) Km app -4.6 Z
MAPK14 (p38 alpha) Km app 9.7 Z SPHK2 10 3.1 A ICK n/a 0.0 L SGKL (SGK3) Km app -4.6 Z
LCK Km app 9.6 Z FGFR3 G697C n/a 3.1 L FGFR2 Km app 0.0 Z PI4KB (PI4K beta) Km app -4.7 A
MAPK11 (p38 beta) Km app 9.5 Z RIPK2 n/a 3.1 L AKT2 (PKB beta) Km app 0.0 Z PRKCE (PKC epsilon) Km app -4.9 Z
SRC Km app 9.5 Z PAK6 Km app 3.0 Z EPHB2 Km app -0.1 Z PHKG1 Km app -5.0 Z
CHEK1 (CHK1) Km app 9.3 Z LYN B Km app 3.0 Z TGFBR2 n/a -0.1 L PDGFRA D842V Km app -5.0 Z
CAMK2D (CaMKII delta) Km app 9.3 Z DAPK2 n/a 2.9 L TEK (Tie2) Km app -0.1 Z PRKG2 (PKG2) Km app -5.1 Z
PLK1 Km app 9.2 Z EPHA4 Km app 2.9 Z AURKA (Aurora A) Km app -0.1 Z TYRO3 (RSE) Km app -5.1 Z
RET Y791F Km app 9.2 Z PIK3CG (p110 gamma) Km app 2.9 A KIT D816H n/a -0.2 L TAOK2 (TAO1) Km app -5.1 Z
FLT3 Km app 9.1 Z HIPK1 (Myak) Km app 2.8 Z KIT N822K n/a -0.2 L EPHB4 Km app -5.3 Z
MAPK10 (JNK3) 100 9.0 Z ADRBK2 (GRK3) Km app 2.8 Z PRKACG (PRKAC gamma) n/a -0.2 L AURKC (Aurora C) Km app -5.4 Z
CSNK2A2 (CK2 alpha 2) Km app 8.7 Z STK17B (DRAK2) n/a 2.7 L TEK (TIE2) Y1108F n/a -0.3 L JAK1 Km app -5.7 Z […]
On the technique in general: In TR-FRET formats the signal depends on donor and acceptor labels being close together.

T1 sequence (Q15375 28-998): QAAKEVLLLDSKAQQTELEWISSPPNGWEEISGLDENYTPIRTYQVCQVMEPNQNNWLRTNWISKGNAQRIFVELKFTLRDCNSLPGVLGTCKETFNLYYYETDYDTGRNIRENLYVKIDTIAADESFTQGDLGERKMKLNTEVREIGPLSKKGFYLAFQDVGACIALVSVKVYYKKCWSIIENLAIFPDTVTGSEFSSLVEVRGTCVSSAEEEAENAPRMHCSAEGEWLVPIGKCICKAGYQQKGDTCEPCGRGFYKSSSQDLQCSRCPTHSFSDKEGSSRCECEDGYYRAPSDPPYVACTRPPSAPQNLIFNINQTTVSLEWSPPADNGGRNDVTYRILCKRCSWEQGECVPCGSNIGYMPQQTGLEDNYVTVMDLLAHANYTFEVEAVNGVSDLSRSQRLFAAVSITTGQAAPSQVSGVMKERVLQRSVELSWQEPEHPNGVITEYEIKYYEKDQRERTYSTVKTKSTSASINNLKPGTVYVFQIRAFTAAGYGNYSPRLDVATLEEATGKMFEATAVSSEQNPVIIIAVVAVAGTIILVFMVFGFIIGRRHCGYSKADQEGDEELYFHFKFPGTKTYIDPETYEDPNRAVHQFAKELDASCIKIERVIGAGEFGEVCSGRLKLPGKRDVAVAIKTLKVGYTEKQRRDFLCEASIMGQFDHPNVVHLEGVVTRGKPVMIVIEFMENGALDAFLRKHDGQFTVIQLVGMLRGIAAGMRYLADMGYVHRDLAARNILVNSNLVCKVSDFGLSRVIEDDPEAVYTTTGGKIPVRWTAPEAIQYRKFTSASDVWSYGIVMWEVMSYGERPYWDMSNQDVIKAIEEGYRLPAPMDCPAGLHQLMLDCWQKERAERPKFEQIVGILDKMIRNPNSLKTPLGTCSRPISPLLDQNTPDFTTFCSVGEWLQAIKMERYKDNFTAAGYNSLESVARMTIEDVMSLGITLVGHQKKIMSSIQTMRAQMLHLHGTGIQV

With `CN(C(=O)CN1CCOCC1)c1ccc2sc3c(-c4cccc5c(=O)cc(N6CC7CCC(C6)O7)oc45)cccc3c2c1` [NU5455], the inhibition at 1 µM stood at 1.2%.

Source of the values: PMC6934184, “Selective DNA-PKcs inhibition extends the therapeutic index of localized radiotherapy and chemotherapy” (The Journal of Clinical Investigation, 2019).
